Measured values published in patent publication EP4736861A1, “ORAL COMPOSITION CONTAINING INORGANIC POROUS BODY” (Tanabe Pharma Corporation, priority 2023, dated 2025).

Tests used:
[1] = source not stated, cited from earlier work; for pKa: acidic concomitant drugs; for pKa of conjugate acid: basic concomitant drugs
[2] = PBPK parameter; from Shimizu et al.; cited from earlier work
[3] = PBPK model: construction and simulation of plasma concentration and urinary excretion; conditions: PBPK parameter, mice
Source text: For the construction, in vivo data from the vehicle group of the previously described "In Vivo Study Using a Choline-Load Fasted Mouse Model" and in vivo data from the single-dose PK study were used.
The following steps were applied for the construction of the PBPK model. • * The liver-to-plasma partition coefficient, blood cell-to-plasma partition coefficient, and plasma protein unbound fraction for d9-TMA and d9-TMAO were cited from the report by Shimizu et al.^1), assuming no species difference. • * The liver volume and hepatic blood flow rate were cited from the report by Yamashita et al.^2). • * Using the data from the single intravenous dose PK study of d9-TMA and d9-TMAO, the PK parameters for d9-TMA and d9-TMAO were estimated. […] For d9-TMA, assuming that adsorption equilibrium is reached in the gastrointestinal tract, it was considered to follow the formula: inhibition ratio of d9-TMA absorption from gastrointestinal tract = theoretical acid amount of unadsorbed zeolite / (water volume in the colon × dissociation constant + theoretical acid amount of unadsorbed zeolite), and the dissociation constant of zeolite and d9-TMA was calculated. The water volume in the colon was cited from the value in SimCYP (V23) manufactured by Certara.

Row | SMILES | pKa of conjugate acid [1] | further results
1 | CC(=O)Nc1ccc(CC(=O)O)cc1 [Actarit] | – | pKa [1]: 3.94
2 | NC(=O)N1c2ccccc2C=Cc2ccccc21 [Carbamazepine] | 7 | –
3 | Clc1ccc(COC(Cn2ccnc2)c2ccc(Cl)cc2Cl)c(Cl)c1 (stereo not shown) [Miconazole] | 5.65 | –
4 | [2H]C([2H])([2H])[N+]([O-])(C([2H])([2H])[2H])C([2H])([2H])[2H] [d9-TMAO] | – | blood cell-to-plasma partition coefficient [2]: 0.845; liver-to-plasma partition coefficient [2]: 0.675; plasma protein unbound fraction [2]: 0.714
5 | Cc1nccn1CC1CCc2c(c3ccccc3n2C)C1=O (stereo not shown) [Ondansetron] | 7.4 | –
6 | [2H]C([2H])([2H])[N+](CCO)(C([2H])([2H])[2H])C([2H])([2H])[2H].[Cl-] [d9-choline] | – | conversion ratio from d9-choline to d9-TMA [3]: 0.9324
7 | Cc1ncc([N+](=O)[O-])n1CCO [Metronidazole] | 2.6 | –
8 | CN1CCN2c3ncccc3Cc3ccccc3C2C1 (stereo not shown) [Mirtazapine] | 3.71 | –
9 | CC12CC3CC(C)(C1)CC(N)(C3)C2 [Memantine] | 10.58 | –
10 | [2H]C([2H])([2H])N(C([2H])([2H])[2H])C([2H])([2H])[2H] [d9-TMA] | – | blood cell-to-plasma partition coefficient [2]: 0.719; liver-to-plasma partition coefficient [2]: 0.752; plasma protein unbound fraction [2]: 0.9
11 | Oc1ncnc2[nH]ncc12 [Allopurinol] | – | pKa [1]: 9.50
12 | CCOC(=O)C1=C[C@@H](OC(CC)CC)[C@H](NC(C)=O)[C@@H](N)C1 [Oseltamivir] | 7.75 | –
13 | OCCN1C[C@H](O)[C@@H](O)[C@H](O)[C@H]1CO [Miglitol] | 5.9 | –
14 | CCC[C@@H]1C[C@@H](C(=O)N[C@@H]([C@H]2O[C@H](SC)[C@H](O)[C@@H](O)[C@H]2O)[C@@H](C)O)N(C)C1 [Lincomycin] | 7.6 | –
15 | COc1ccccc1OCCNCC(O)COc1cccc2[nH]c3ccccc3c12 (stereo not shown) [Carvedilol] | 7.8 | –
